How the values were obtained:
[1] = tested on: passive cutaneous anaphylaxis (PCA); experiment: Passive cutaneous anaphylaxis assay (PCA) in rats; type: in vivo, rat (Wister strain); details: oral 10 mg/kg, one hour before antigen; for inhibition in vivo at 10 mg/kg: Rattus norvegicus, po, 1 h, read-out: PCA Inhibition Ratio %
Method: (§1) The effect of the compounds (I) of the present invention in the treatment of asthma and allergic diseases were evaluated by a passive cutaneous anaphylaxis assay (PCA) in rats and by measuring anti-SRS-A action using ileus of guinea pigs.
(i) Antiserum abundant in homocytotropic antibody is prepared by the same method as Tada and Okumura did (cf. Journal of Immunology, volume 106, page 1002, […]). Thus, one mg (calculated as an amount of protein) of DNP-As (2,4-dinitrophenyl-coupled ascaris extract) prepared by methods of Strejan and Campbell (Journal of Immunology, volume 98, page 893, 1971) and of Eisen (Journal of American Chemical Society, volume 85, page 4593, 1953) and […] pertussis vaccine are administered to each paw of Wister strain rats (180 to 200 grams body weights) by dividing the dose by four. Five days later, 0.5 mg of DNP-As is adminstered into muscle of back. Eight days later from the initial immunization, blood is taken from descending aorta under anesthetizing with ether, the resulting serum is stored at -80° C. and is melted before use.
(ii) Effect of tested compounds is investigated as follows:
Anti-serum obtained by the method (i) is diluted with physiological saline solution double by double successively and 0.05 ml of each diluted solution is administered into back of Wister strain rats (140 to 160 grams body weight) subcutaneously. After 72 hours, a solution of 2 mg (calculated as protein) of DNP-As and 2.5 mg of Evand Blue dissolved in 1 ml of physiological saline solution is administered intravenously at a dose of 5 ml/kg. After thirty minutes from antigen solution administration, the animals are killed and diameters of blue spots appeared at the place where antiserum is administered are measured. The PCA test is conducted by the same method as already described using a diluted solutions of antiserum which always show 10 mm or more of spot diameters and the effect of the test compounds is judged. Thus, antiserum diluted solutions are administered to two places in back. Test compounds are administered orally at the dose of 10 mg/kg one hour before administration of antigen solution. From the skin of reacted parts of killed animals, leaked or emitted dyestuff is extracted [cf. Baeck and Steinetz: J. Pharmacol. Exp. Ther., Vol. 131, page 400 (1961)] and the amount of the dyestuff is measured. The inhibition ratio is calculated by the following expression: [formula] in which R' is an amount of dyestuff in the group treated with the test compounds and A is that in the control group.

male mice = experiment: Acute toxicity, oral, observed for two weeks; type: in vivo; details: oral 4000 mg/kg, dead/total
Method: Acute toxicity is observed for two weeks by oral adminsitration of 4000 mg/kg of the test compounds to male mice. One group consists of four mice. Numbers of dead mice are shown in numerators.

SRS-A = experiment: Anti-SRS-A action (SRS-A induced shrinkage of guinea pig ileus); design: species or system guinea pig (Hartley strain male); details: treated five minutes before SRS-A (20 units), 5 min; for SRS-A Inhibition Ratio % 10^-6 M: 1 µM; for SRS-A Inhibition Ratio % 10^-7 M: 0.1 µM
Method: as §1
Anti-SRS-A action (An anti-action against slow reacting substance of anaphylaxie)
Hartley strain male guinea pigs (300 to 350 grams body weight) are killed and 1.0 to 1.5 cm of ileus is immediately excised from ileocecal parts and is suspended in 10 ml of Tyrode solution (95% O2 -5% CO2 saturation) containing 10^-7 g/ml of atropine and 10^-6 g/ml of pyrilamine. SRS-A (20 units) (the amount of SRS-A showing the same shrinkage as 5 ng of histamine is defined as one unit) prepared by using sensitized guinea pig lung is given to cause shrinkage there. Then antagonistic action of test compounds treated five minutes ago against the shrinkage is measured and recorded via isotonic transducer. [formula] in which A' is a height of shrinkage of SRS-A + test compound and A is that of SRS-A.

SMILES	inhibition in vivo at 10 mg/kg [1]	Lethal Ratio (male mice)	SRS-A Inhibition Ratio % 10^-6 M (SRS-A)	SRS-A Inhibition Ratio % 10^-7 M (SRS-A)	PCA Inhibition Ratio % ([1]; 10 mg/kg)
CCOC(=O)c1cccc2c(=O)c(C)c(-c3ccccc3OC)oc12 [Example 11, ethyl 2'-methoxy-3-methylflavone-8-carboxylate]	16.3%	0/4	100%	35.1%	
CCNC(=O)c1cccc2c(=O)c(C)c(-c3ccccc3OC)oc12 [Example 13, 2'-methoxy-3-methylflavone-8-carboxylic acid acid N-ethylamide]	23%	1/4	45.2%	37.4%	
CCOc1ccccc1-c1oc2c(C(=O)N(CC)CC)cccc2c(=O)c1C [Example 18, 2'-ethoxy-3-methylflavone-8-carboxylic acid N,N-diethylamide]	27.4%	0/4	57.1%	32.1%	
CCCCCCNC(=O)c1cccc2c(=O)c(C)c(-c3ccc(C(C)C)cc3)oc12 [Example 52, 4'-isopropyl-3-methylflavone-8-carboxylic acid N-n-hexylamide]	13.5%		66.1%	20.7%	
Cc1c(-c2ccc(C(C)C)cc2)oc2c(C(=O)NC3CCCCC3)cccc2c1=O [Example 53, 4'-isopropyl-3-methylflavone-8-carboxylic acid N-cyclohexylamide]	10.3%		51.9%	40.0%	
Cc1c(-c2ccc(C(C)C)cc2)oc2c(C(=O)N3CCCCC3)cccc2c1=O [Example 54, 4'-isopropyl-3-methylflavone-8-carboxylic acid N,N-pentamethylene amide]	13%		69.0%	38.6%	
CCOC(=O)c1cccc2c(=O)c(C)c(-c3ccc(C(C)(C)C)cc3)oc12 [Example 56, ethyl 4'-tertiary butyl-3-methylflavone-8-carboxylate]	20.2%		44.9%	19.0%	
CCN(CC)C(=O)c1cccc2c(=O)c(C)c(-c3ccc(C(C)(C)C)cc3)oc12 [Example 57, 4'-tertiary butyl-3-methylflavone-8-carboxylic acid N,N-diethylamide]	19.1%		39.1%	10.4%	
CCCCCc1ccc(-c2oc3c(C(=O)OCC)cccc3c(=O)c2C)cc1 [Example 59, ethyl 3-methyl-4'-n-pentylflavone-8-carboxylate]	19.4%		38.1%	9.8%	
CCCCCc1ccc(-c2oc3c(C(=O)N(CC)CC)cccc3c(=O)c2C)cc1 [Example 60, 3-methyl-4'-n-pentylflavone-8-carboxylic acid N,N-diethylamide]	13.4%		100%	44.9%	
CCCCCc1ccc(-c2oc3c(C(=O)O)cccc3c(=O)c2C)cc1 [Example 61]			40.7%	9.4%	22.7%
CCCCCCCCc1ccc(-c2oc3c(C(=O)O)cccc3c(=O)c2C)cc1 [Example 62, 3-methyl-4'-n-octylflavone-8-carboxylicacid]	16.3%	0/4	83.3%	31.0%	
CCOC(=O)c1cccc2c(=O)c(C)c(-c3ccccc3Cl)oc12 [Example 67, ethyl 2'-chloro-3-methylflavone-8-carboxylate]	19.8%		100%	42.9%	
CCN(CC)C(=O)c1cccc2c(=O)c(C)c(-c3ccccc3Cl)oc12 [Example 68]	21.1%		55.3%	9.8%	
Cc1c(-c2ccccc2Cl)oc2c(C(=O)OCCO)cccc2c1=O [Example 69, beta-hydroxyethyl 2'-chloro-3-methylflavone-8-carboxylate]	14.3%		55.3%	9.8%	
CCOC(=O)c1cccc2c(=O)c(C)c(-c3ccc(Cl)cc3)oc12 [Example 71, ethyl 4'-chloro-3-methylflavone-8-carboxylate]	36.9%		10.3%	6.0%	
CCN(CC)C(=O)c1cccc2c(=O)c(C)c(-c3ccc(Cl)cc3)oc12 [Example 72, 4'-chloro-3-methylflavone-8-carboxylic acid N,N-diethylamide]	16.3%		42.1%	7.5%	
CCNC(=O)c1cccc2c(=O)c(C)c(-c3ccc(Cl)cc3)oc12 [Example 73, 4'-chloro-3-methylflavone-8-carboxylic acid N-ethylamide]	19.4%		29.4%	6.2%	
Cc1c(-c2ccc(Cl)cc2)oc2c(C(=O)OCCO)cccc2c1=O [Example 74, beta-hydroxyethyl 4'-chloro-3-methylflavone-8-carboxylate]	17.3%	0/4	52.0%	18.7%	
Cc1c(-c2cc(Cl)ccc2Cl)oc2c(C(=O)O)cccc2c1=O [Example 76, 2',5'-dichloro-3-methylflavone-8-carboxylic acid]	13.2%		65.2%	40.0%	
CCOC(=O)c1cccc2c(=O)c(C)c(-c3cc(Cl)ccc3Cl)oc12 [Example 77, ethyl 2',5'-dichloro-3-methylflavone-8-carboxylate]	16.3%		67.4%	6.9%	
CCN(CC)C(=O)c1cccc2c(=O)c(C)c(-c3cc(Cl)ccc3Cl)oc12 [Example 78, 2',5'-dichloro-3-methylflavone-8-carboxylic acid N,N-diethylamide]	26.3%		79.3%	5.6%	
CCOC(=O)c1cccc2c(=O)c(C)c(-c3ccc(Cl)cc3Cl)oc12 [Example 80, ethyl 2',4'-dichloro-3-methylflavone-8-carboxylate]	21.3%		61.7%	17.6%	
CCN(CC)C(=O)c1cccc2c(=O)c(C)c(-c3ccc(Cl)cc3Cl)oc12 [Example 81, 2',4'-dichloro-3-methylflavone-8-carboxylic acid N,N-diethylamide]	20.4%		57.1%	9.8%	

Reference: patent publication US4594345A, “Methylflavone-8-carboxylates” (Nippon Shinyaku Co. Ltd., priority 1982, dated 1986)
